Experimental data: US7932283B2, “Fungicide N-cyclopropyl-sulfonylamide derivatives” (Bayer Cropscience AG, priority 2006, dated 2011)

Columns and labels:
[1] = test system: Mycosphaerella graminicola; assay: In vivo test on Mycosphaerella graminicola (wheat leaf spot); conditions: Zymoseptoria tritici, wheat plants (Scipion variety), grading 21 to 28 days after contamination, good (at least 70%) or total protection, read-out: protection (% of efficacy)
Protocol: In vivo Test on Mycosphaerella graminicola (Wheat Leaf Spot)
The active ingredients tested are prepared by homogenisation in a mixture of acetone/tween/DMSO, and then diluted with water to obtain the desired active material concentration.
Wheat plants (Scipion variety), sown on a 50/50 peat soil-pozzolana substrate in starter cups and grown at 12° C., are treated at the 1-leaf stage (10 cm tall) by spraying with the active ingredient prepared as described above.
Plants, used as controls, are treated with the mixture of acetone/tween/DMSO/water not containing the active material.
After 24 hours, the plants are contaminated by spraying them with an aqueous suspension of Mycosphaerella graminicola spores (500 000 spores per ml). The spores are collected from a 7-day-old culture. The contaminated wheat plants are incubated for 72 hours at 18° C. and at 100% relative humidity, and then for 21 to 28 days at 90% relative humidity.
Grading (% of efficacy) is carried out 21 to 28 days after the contamination, in comparison with the control plants.

Puccinia recondita = assay: In vivo test on Puccinia recondita f. sp. tritici (wheat brown rust); conditions: 240 h, wheat plants (Scipion variety), grading 10 days after contamination, good (at least 70%) or total protection
Protocol: In vivo Test on Puccinia reconditef. Sp. tritici (Wheat Brown Rust)
(§1) The active ingredients tested are prepared by homogenisation in a mixture of acetone/tween/DMSO, then diluted with water to obtain the desired active material concentration. Wheat plants (Scipion variety) in starter cups, sown on 50/50 peat soil-pozzolana substrate and grown at 12° C., are treated at the 1-leaf stage (10 cm tall) by spraying with the active ingredient prepared as described above. Plants, used as controls, are treated with the mixture of acetone/tween/DMSO/water not containing the active material.
After 24 hours, the plants are contaminated by spraying the leaves with an aqueous suspension of Puccinia recondita spores (100,000 spores per ml). The spores are collected from a 10-day-old contaminated wheat and are suspended in water containing 2.5 ml/of tween 80 10%. The contaminated wheat plants are incubated for 24 hours at 20° C. and at 100% relative humidity, and then for 10 days at 20° C. and at 70% relative humidity. Grading is carried out 10 days after the contamination, in comparison with the control plants.

Podosphaera leucotricha = assay: In vivo test on Podosphaera leucotricha (apple mildew), preventive spray; conditions: 240 h, apple young plants, evaluated 10 days after inoculation, good (at least 70%) to total protection
Protocol: In Vivo Test on Podosphaera leucotncha (Apple Mildew) [table] To produce a suitable preparation of active compound, 1 part by weight of active compound is mixed with the stated amounts of solvent and emulsifier, and the concentrate is diluted with water to the desired concentration. Young plants are sprayed with the preparation of active compound at the stated rate of application. After the spray coating has dried on, the plants are inoculated with an aqueous spore suspension of the causal agent of apple mildew (Podosphaera leucobicha). The plants are then placed in a greenhouse at approximately 23° C. and a relative atmospheric humidity of approximately 70%. The test is evaluated 10 days after the inoculation. Under these conditions, good (at least 70%) to total protection is observed at a dose of 100 ppm with the following compounds: 104, 160, 176, 177, 180, 186, 187, 188, 192, 194, 196, 198, 203, 204, 205, 207, 209, 210, 211, 212, 213, 218 and 446.

[2] = logP by HPLC on reversed-phase column (C 18), EEC Directive 79/B31 Annex V.A8, methods A and B; format: physicochemical; conditions: reversed-phase HPLC column (C 18), linear gradient 10% to 90% acetonitrile
Protocol: Calibration was carried out using unbranched alkan-2-ones (having 3 to 16 carbon atoms) with known logP values (determination of the logP values by the retention times using linear interpolation between two successive alkanones).

Pyrenophora teres = assay: In vivo test on Pyrenophora teres (barley net blotch); conditions: 288 h, barley plants (Express variety), grading 12 days after contamination, good (at least 70%) or total protection
Protocol: In Vivo Test on Pyrenophore teres (Barley Net Blotch)
as §1, with “material concentration. Barley plants (Express” for “material concentration. Wheat plants (Scipion”, “Barley plants (Express variety) in” for “Wheat plants (Scipion variety) in”, “sown on a 50/50 peat” for “sown on 50/50 peat”
After 24 hours, the plants are contaminated by spraying them with an aqueous suspension of Pyrenophora teres spores (12,000 spores per ml). The spores are collected from a 12-day-old culture. The contaminated barley plants are incubated for 24 hours at about 20° C. and at 100% relative humidity, and then for 12 days at 80% relative humidity.

[3] = HPLC reversed-phase C 18, method A: 43° C., 0.1% aqueous phosphoric acid, acetonitrile
[4] = HPLC reversed-phase C 18, method B: 40° C., 0.1% aqueous formic acid and acetonitrile
[5] = LogP method B: HPLC reversed-phase C 18, 40° C., 0.1% aqueous formic acid / acetonitrile

| SMILES | pest or weed control at 500 ppm [1] | pest or weed control at 500 ppm (Puccinia recondita) | chromatographic logP [2, 5] | further results |
| --- | --- | --- | --- | --- |
| Cc1nc(C(=O)N(C2CC2)S(=O)(=O)c2ccc(Oc3ccccc3)cc2)c(C)o1 [Compound 45] | ≥ 70% | – | – | – |
| Cc1nc(C(=O)N(C2CC2)S(=O)(=O)c2ccc(Oc3ccccc3)cc2)c(C(F)(F)F)o1 [Compound 49] | ≥ 70% | ≥ 70% | – | – |
| Cc1nn(C)c(F)c1C(=O)N(C1CC1)S(=O)(=O)c1ccc(C(F)(F)F)cc1 [Compound 188] | – | – | – | pest or weed control at 100 ppm (Podosphaera leucotricha): ≥ 70%; chromatographic logP [2, 3]: 3.1 |
| COc1nn(C)cc1C(=O)N(C1CC1)S(=O)(=O)c1ccccc1O [Compound 211] | – | – | – | pest or weed control at 100 ppm (Podosphaera leucotricha): ≥ 70%; chromatographic logP [2, 3]: 1.94 |
| Cc1nn(C)c(F)c1C(=O)N(C1CC1)S(=O)(=O)c1c(O)cccc1O [Compound 218] | – | – | – | pest or weed control at 100 ppm (Podosphaera leucotricha): ≥ 70%; chromatographic logP [2, 3]: 2.52 |
| Cn1cc(C(=O)N(C2CC2)S(=O)(=O)c2ccc(Oc3ccccc3)cc2)c(C(F)F)n1 [Compound 249] | ≥ 70% | – | – | – |
| CCOc1nn(C)cc1C(=O)N(C1CC1)S(=O)(=O)c1ccc(Oc2cccc(C(F)(F)F)c2)cc1 [Compound 264] | ≥ 70% | ≥ 70% | – | – |
| COc1nn(C)cc1C(=O)N(C1CC1)S(=O)(=O)c1ccc(Sc2ccccc2)cc1 [Compound 266, N-cyclopropyl-3-methoxy-1-methyl-N-{[4-(phenylthio)phenyl]sulfonyl}-1H-pyrazole-4-carboxamide] | – | ≥ 70% | – | pest or weed control at 500 ppm (Pyrenophora teres): ≥ 70% |
| COc1nn(C)cc1C(=O)N(C1CC1)S(=O)(=O)c1ccc(Oc2ccc(C(F)(F)F)cc2)cc1 [Compound 268] | – | – | – | pest or weed control at 500 ppm (Pyrenophora teres): ≥ 70% |
| COc1nn(C)cc1C(=O)N(C1CC1)S(=O)(=O)c1ccc(Oc2ccc(Br)cc2)cc1 [Compound 269] | – | ≥ 70% | – | pest or weed control at 500 ppm (Pyrenophora teres): ≥ 70% |
| Cn1nc(C(F)(F)F)c(C(=O)N(C2CC2)S(=O)(=O)c2cccc(O)c2O)c1F [Compound 357] | – | – | – | pest or weed control at 500 ppm (Pyrenophora teres): ≥ 70%; chromatographic logP [2, 4]: 3.3 |
| Cn1nc(C(F)(F)F)c(C(=O)N(C2CC2)S(=O)(=O)c2cccc(Cl)c2F)c1F [Compound 358] | ≥ 70% | – | – | chromatographic logP [2, 4]: 3.2 |
| CCc1nn(C)c(F)c1C(=O)N(C1CC1)S(=O)(=O)c1ccccc1C(F)(F)F [Compound 377] | ≥ 70% | – | – | chromatographic logP [2, 4]: 2.9 |
| CCc1nn(C)c(F)c1C(=O)N(C1CC1)S(=O)(=O)c1ccc(C(C)(C)C)cc1 [Compound 381] | – | – | – | pest or weed control at 500 ppm (Pyrenophora teres): ≥ 70% |
| COc1nn(C)cc1C(=O)N(C1CC1)S(=O)(=O)c1c(O)cc(C(F)(F)F)cc1O [Compound 396] | – | – | – | pest or weed control at 500 ppm (Pyrenophora teres): ≥ 70%; chromatographic logP [2, 4]: 3 |
| Cn1nc(C(F)(F)F)c(C(=O)N(C2CC2)S(=O)(=O)c2c(O)sc(O)c2Br)c1F [Compound 436] | – | – | 3.9 | pest or weed control at 500 ppm (Pyrenophora teres): ≥ 70% |
| CC/C=N/N(C)/C(F)=C/C(=O)N(C1CC1)S(=O)(=O)c1csc(O)c1O [Compound 438] | ≥ 70% | – | 4 | – |
| Cc1nn(C)c(F)c1C(=O)N(C1CC1)S(=O)(=O)c1cccnc1O [Compound 446] | – | – | – | pest or weed control at 100 ppm (Podosphaera leucotricha): ≥ 70%; chromatographic logP ([2]; LogP method A: HPLC reversed-phase C 18, 43° C., 0.1% aqueous phosphoric acid / acetonitrile): 1.96 |

| SMILES | pest or weed control at 500 ppm [1] | pest or weed control at 500 ppm (Puccinia recondita) | chromatographic logP [2, 5] | further results |
| --- | --- | --- | --- | --- |
| COc1nn(C)cc1C(=O)N(C1CC1)S(=O)(=O)c1ccc2c(c1)CCC(C)(C)O2 [Compound 457] | ≥ 70% | ≥ 70% | – | – |
| COc1nn(C)cc1C(=O)N(C1CC1)S(=O)(=O)c1ccc(Oc2cccc(N(C)C)c2)c(Cl)c1 [Compound 502] | ≥ 70% | ≥ 70% | – | – |
| COc1nn(C)cc1C(=O)N(C1CC1)S(=O)(=O)c1ccc(Oc2cccc(C(F)(F)F)c2)cc1Cl [Compound 508] | ≥ 70% | – | – | – |
| COc1nn(C)cc1C(=O)N(C1CC1)S(=O)(=O)c1ccc(Oc2cccc(C(F)(F)F)c2F)cc1Cl [Compound 519] | ≥ 70% | – | – | – |
| CCOc1nn(C)cc1C(=O)N(C1CC1)S(=O)(=O)c1ccc2c(c1)CCC(C)(C)O2 [Compound 524] | ≥ 70% | ≥ 70% | – | – |
| CCOc1nn(C)cc1C(=O)N(C1CC1)S(=O)(=O)c1ccc(Oc2ccc(OC)c(OC)c2)c(O)c1 [Compound 528] | ≥ 70% | ≥ 70% | 3.5 | – |
| CCOc1nn(C)cc1C(=O)N(C1CC1)S(=O)(=O)c1ccc(Oc2ccccc2)cc1O [Compound 530] | ≥ 70% | – | 3.6 | – |
| CCOc1nn(C)cc1C(=O)N(C1CC1)S(=O)(=O)c1ccc(Oc2ccc(O)cc2)cc1O [Compound 535] | ≥ 70% | – | 4 | – |
| CCOc1nn(C)cc1C(=O)N(C1CC1)S(=O)(=O)C1C=CC(OC2=CC=C(C(F)(F)F)CC2)=CC1O (stereo not shown) [Compound 538] | ≥ 70% | – | 4.1 | – |
| CCOc1nn(C)cc1C(=O)N(C1CC1)S(=O)(=O)c1ccc(Oc2cccc(N(C)C)c2)c(O)c1 [Compound 539] | ≥ 70% | ≥ 70% | 4.1 | – |
| CCOc1nn(C)cc1C(=O)N(C1CC1)S(=O)(=O)c1ccc(Oc2cccc(C(F)(F)F)c2F)c(O)c1 [Compound 547] | ≥ 70% | ≥ 70% | 4.3 | – |
| CCOc1nn(C)cc1C(=O)N(C1CC1)S(=O)(=O)c1ccc(Oc2ccc(C(F)(F)F)cc2)c(Br)c1 [Compound 550] | ≥ 70% | ≥ 70% | 4.4 | – |
| CCOc1nn(C)cc1C(=O)N(C1CC1)S(=O)(=O)c1ccc(Oc2ccc(Br)cc2)c(O)c1 [Compound 552] | ≥ 70% | ≥ 70% | 4.5 | – |
| CCOc1nn(C)cc1C(=O)N(C1CC1)S(=O)(=O)c1ccc(Oc2ccc(O)c(C(F)(F)F)c2)c(Cl)c1 [Compound 556] | ≥ 70% | ≥ 70% | 4.8 | – |
| CCOc1nn(C)cc1C(=O)N(C1CC1)S(=O)(=O)c1ccc(Cc2cc(O)cc(O)c2)c(O)c1 [Compound 559] | ≥ 70% | ≥ 70% | 5 | – |
| CCc1nn(C)c(F)c1C(=O)N(C1CC1)S(=O)(=O)c1ccc(Oc2cccc(C)c2)cc1 [Compound 578] | ≥ 70% | – | – | – |
| Cc1cccc(Oc2ccc(S(=O)(=O)N(C(=O)c3c(C)nn(C)c3F)C3CC3)cc2)c1 [Compound 583] | ≥ 70% | – | – | – |
| CCOc1nn(C)cc1C(=O)N(C1CC1C)S(=O)(=O)c1ccc(Oc2ccccc2)cc1 (stereo not shown) [Compound 675] | ≥ 70% | – | – | – |
